# ChEMBL document CHEMBL1151650, “New Furostanol Glycosides from Asparagus plumosus Leaves” (J Nat Prod, 1985)
# Tested on: Biomphalaria glabrata
# Assay: Toxic molluscicidal activity against Biomphalaria glabrata
# Assay type: ADME, organism-based
# Settings: in vivo
row,Compound,Activity
1,CO[C@]1(CC[C@H](C)CO[C@@H]2O[C@H](CO)[C@@H](O)[C@H](O)[C@H]2O)O[C@H]2C[C@H]3[C@@H]4CC=C5C[C@@H](O[C@@H]6O[C@H](CO)[C@@H](O)[C@H](O[C@@H]7O[C@@H](C)[C@H](O)[C@@H](O)[C@H]7O)[C@H]6O[C@@H]6O[C@@H](C)[C@H](O)[C@@H](O)[C@H]6O)CC[C@]5(C)[C@H]4CC[C@]3(C)[C@H]2[C@@H]1C,Non-toxic
2,C[C@@H](CC[C@@]1(O)O[C@H]2C[C@H]3[C@@H]4CC=C5C[C@@H](O[C@@H]6O[C@H](CO)[C@@H](O)[C@H](O[C@@H]7O[C@@H](C)[C@H](O)[C@@H](O)[C@H]7O)[C@H]6O[C@@H]6O[C@@H](C)[C@H](O)[C@@H](O)[C@H]6O)CC[C@]5(C)[C@H]4CC[C@]3(C)[C@H]2[C@@H]1C)CO[C@@H]1O[C@H](CO)[C@@H](O)[C@H](O)[C@H]1O,Non-toxic
